Reference: US20220315554A1, “COMPOUNDS COMPRISING A […] LIGAND AND USE THEREOF” (priority 2019, published 2022)
Numbered stars: 1 amine (or outer) side, 2 acyl side, 3 side chain; on linkers, the order of the positions; unused ones are H or OH. Bridge positions count the residues as written; N and C are the ends. Square brackets hold non-standard residues; d marks the D form. Peptide text beside a SMILES is read from it. * marks the point of attachment. ξ: configuration not given here. X3 = NC(=O)[C@H](CCCCNC(=O)CN1CCN(CC(=O)O)CCN(CC(=O)O)CCN(CC(=O)O)CC1)NC(=O)CCC(=O)NCCCOCCOCCOCCCN*; X6 = NC(=O)[C@H](CCCCNC(=O)CCCC[C@@H]1SC[C@@H]2NC(=O)N[C@@H]21)NC(=O)CCC(=O)NCCCOCCOCCOCCCN*; X2 = O=C(O)CN1CCN(CC(=O)O)CCN(CC(=O)NCCCOCCOCCOCCCN*)CCN(CC(=O)O)CC1; mXylylene = c1cc(C[*:1])cc(C[*:2])c1; NMeF = CN[C@@H](Cc1ccccc1)C(=O)O; Suc = O=C(CCC(=O)[*:2])[*:1]; Nle = CCCC[C@H](N)C(=O)O; Hexanoyl = CCCCCC(=O)*; ξD = NC(CC(=O)O)C(=O)O

What was measured:
[1] = target: T1, Recombinant human DPP4 (Homo sapiens, UniProt P27487); assay: DPP4 protease activity assay; type: biochemical
T1 construct: purchased R&D systems 9168-SE
T1 sequence (P27487 whole entry): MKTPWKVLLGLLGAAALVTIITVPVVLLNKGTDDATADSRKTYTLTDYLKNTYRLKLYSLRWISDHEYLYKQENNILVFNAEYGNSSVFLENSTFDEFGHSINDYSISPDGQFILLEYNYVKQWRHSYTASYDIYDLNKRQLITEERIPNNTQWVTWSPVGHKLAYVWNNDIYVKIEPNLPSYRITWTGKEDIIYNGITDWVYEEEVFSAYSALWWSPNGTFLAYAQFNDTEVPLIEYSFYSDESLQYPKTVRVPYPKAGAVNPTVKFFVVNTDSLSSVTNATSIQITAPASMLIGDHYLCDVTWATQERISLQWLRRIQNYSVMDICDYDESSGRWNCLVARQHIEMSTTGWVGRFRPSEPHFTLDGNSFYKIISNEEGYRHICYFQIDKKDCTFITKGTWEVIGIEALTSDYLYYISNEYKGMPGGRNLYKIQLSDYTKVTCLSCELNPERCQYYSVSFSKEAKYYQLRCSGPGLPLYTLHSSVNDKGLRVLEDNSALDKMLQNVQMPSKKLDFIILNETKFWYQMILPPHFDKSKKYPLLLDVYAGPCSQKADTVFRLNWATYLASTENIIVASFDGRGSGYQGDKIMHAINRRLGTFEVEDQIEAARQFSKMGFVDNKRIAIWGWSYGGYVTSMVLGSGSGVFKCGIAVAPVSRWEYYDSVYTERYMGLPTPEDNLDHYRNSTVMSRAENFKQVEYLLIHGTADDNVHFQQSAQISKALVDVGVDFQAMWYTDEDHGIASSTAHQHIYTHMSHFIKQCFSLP

[2] = target: T2, Human recombinant FAP (Homo sapiens, UniProt Q12884); assay: FRET-based FAP protease activity assay; type: biochemical; design: purchased R&D systems 3715-SE
T2 sequence (Q12884 1-760): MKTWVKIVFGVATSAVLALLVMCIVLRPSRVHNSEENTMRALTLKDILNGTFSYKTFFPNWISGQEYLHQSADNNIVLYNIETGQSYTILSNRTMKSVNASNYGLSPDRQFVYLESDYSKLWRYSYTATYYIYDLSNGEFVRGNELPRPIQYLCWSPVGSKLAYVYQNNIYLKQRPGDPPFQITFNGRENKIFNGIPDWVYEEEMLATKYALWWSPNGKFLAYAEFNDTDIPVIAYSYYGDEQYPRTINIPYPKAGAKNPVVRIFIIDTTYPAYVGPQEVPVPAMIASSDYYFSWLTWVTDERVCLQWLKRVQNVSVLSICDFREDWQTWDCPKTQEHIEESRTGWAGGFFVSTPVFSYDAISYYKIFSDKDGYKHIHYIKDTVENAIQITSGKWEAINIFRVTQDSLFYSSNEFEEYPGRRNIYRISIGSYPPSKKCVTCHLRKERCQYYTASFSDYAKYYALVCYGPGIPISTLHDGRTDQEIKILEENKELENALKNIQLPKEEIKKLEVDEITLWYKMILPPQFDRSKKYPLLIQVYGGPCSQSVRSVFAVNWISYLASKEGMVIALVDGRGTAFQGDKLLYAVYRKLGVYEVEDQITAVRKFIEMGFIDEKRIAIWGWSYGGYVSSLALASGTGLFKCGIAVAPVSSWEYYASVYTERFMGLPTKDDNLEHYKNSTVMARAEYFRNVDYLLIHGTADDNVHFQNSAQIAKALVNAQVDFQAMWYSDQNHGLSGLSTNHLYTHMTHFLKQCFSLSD

[3] = target: T3, recombinant human PREP (Homo sapiens, UniProt P48147); assay: PREP protease activity assay; type: biochemical
T3 construct: purchased R&D systems 4308-SE
T3 sequence (P48147 1-710): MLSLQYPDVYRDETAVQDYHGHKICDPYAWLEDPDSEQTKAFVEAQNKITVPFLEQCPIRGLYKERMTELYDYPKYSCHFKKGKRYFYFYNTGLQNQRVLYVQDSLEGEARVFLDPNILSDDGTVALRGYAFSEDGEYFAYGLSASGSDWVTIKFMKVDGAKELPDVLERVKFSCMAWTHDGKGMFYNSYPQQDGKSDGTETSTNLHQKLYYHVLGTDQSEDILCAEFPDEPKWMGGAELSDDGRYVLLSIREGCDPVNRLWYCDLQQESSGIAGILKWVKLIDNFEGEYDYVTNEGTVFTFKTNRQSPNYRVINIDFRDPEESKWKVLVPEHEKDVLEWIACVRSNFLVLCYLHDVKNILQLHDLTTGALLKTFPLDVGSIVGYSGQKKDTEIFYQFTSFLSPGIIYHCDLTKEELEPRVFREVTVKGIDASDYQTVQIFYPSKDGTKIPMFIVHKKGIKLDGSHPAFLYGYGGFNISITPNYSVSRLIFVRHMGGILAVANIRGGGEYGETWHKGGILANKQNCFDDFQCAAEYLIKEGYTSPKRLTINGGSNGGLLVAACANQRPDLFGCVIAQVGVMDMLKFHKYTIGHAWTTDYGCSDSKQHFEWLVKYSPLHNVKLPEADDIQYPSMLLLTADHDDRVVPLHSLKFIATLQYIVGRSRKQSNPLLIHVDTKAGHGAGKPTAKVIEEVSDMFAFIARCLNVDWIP

[4] = target: T4, FAP-expressing human WI-38 fibroblasts (Homo sapiens, UniProt Q12884); assay: Competitive FACS binding assay
T4 construct: FAP-expressing human WI-38 fibroblasts (ECACC) were cultured in EMEM; host or cells: WI-38 human fibroblasts
T4 sequence (Q12884 1-760): T2 sequence (Q12884 1-760)
Protocol: Cells were analyzed in an Attune NxT flow cytometer. […]

[5] = Plasma stability assay, mouse plasma; type: in vitro ADME; conditions: 4 h incubation, 37° C., read-out: % intact compound remaining after incubation, Mouse plasma
[6] = target: T2, Human recombinant FAP; assay: Surface plasmon resonance (Biacore) assay; type: binding
[7] = pIC50 Category (Activity), recombinant human FAP, FRET substrate, 37° C.
[8] = pIC50 Category (FACS), competition with 3 nM Cy5-labeled compound, WI-38 fibroblasts, 4° C., 1 hour

| SMILES | IC50 [1] | IC50 [2, 7] | IC50 [3] | IC50 [4, 8] | remaining at 4 h, 9.8 µM [5] | Kd [6] | IC50 ([2]; pIC50 (highest activity category), FAP activity assay) | IC50 ([4]; pIC50 (highest activity category), FACS binding) |
| --- | --- | --- | --- | --- | --- | --- | --- | --- |
| CSCC[C@H](N)C(=O)N[C@H]1CSCc2cccc(c2)CSC[C@@H](C(=O)N[C@@H](CC(=O)O)C(=O)N[C@@H](Cc2c[nH]cn2)C(=O)N[C@@H](Cc2ccccc2)C(=O)N[C@@H](CCCNC(=N)N)C(=O)N[C@@H](CC(=O)O)C(=O)NCCCOCCOCCOCCCNC(=O)CCC(=O)N[C@@H](CCCCNC(=O)CCCC[C@@H]2SC[C@@H]3NC(=O)N[C@@H]32)C(N)=O)NC(=O)[C@H](Cc2ccccc2)NC(=O)[C@H](CCC(=O)O)NC(=O)[C@H]([C@@H](C)O)NC(=O)[C@@H]2CCCN2C(=O)[C@@H]2CCCN2C1=O [3BP-2881, H-Met-[Cys(3MeBn)-Pro-Pro-Thr-Glu-Phe-Cys]-Asp-His-Phe-Arg-Asp-Ttds-Lys(Bio)-NH2] (H-MCPPTEFCDHFRD-X6; linker 2-8 via mXylylene) | > 1000 nM | < 10 nM | > 1000 nM | < 10 nM | – | – | – | – |
| CCCCCC(=O)N[C@H]1CSCc2cccc(c2)CSC[C@@H](C(=O)N[C@@H](CC(=O)O)C(=O)N[C@@H](Cc2c[nH]cn2)C(=O)N[C@@H](Cc2ccccc2)C(=O)N[C@@H](CCCNC(=N)N)C(=O)N[C@@H](CC(=O)O)C(=O)NCCCOCCOCCOCCCNC(=O)CCC(=O)N[C@@H](CCCCNC(=O)CN2CCN(CC(=O)O)CCN(CC(=O)O)CCN(CC(=O)O)CC2)C(N)=O)NC(=O)[C@H](Cc2ccccc2)NC(=O)[C@H](CCC(=O)O)NC(=O)[C@H]([C@@H](C)O)NC(=O)[C@@H]2CCCN2C(=O)[C@@H]2CCCN2C1=O [3BP-3105, Hex-[Cys(3MeBn)-Pro-Pro-Thr-Glu-Phe-Cys]-Asp-His-Phe-Arg-Asp-Ttds-Lys(DOTA)-NH2] (Hexanoyl-CPPTEFCDHFRD-X3; linker 1-7 via mXylylene) | > 1000 nM | < 10 nM | > 1000 nM | < 10 nM | 55% | < 10 nM | – | – |
| CSCC[C@H](NC(=O)CCC(=O)NCCCOCCOCCOCCOCCCNC(=O)CN1CCN(CC(=O)O)CCN(CC(=O)O)CCN(CC(=O)O)CC1)C(=O)N[C@H]1CSCc2cccc(c2)CSC[C@@H](C(=O)N[C@@H](CC(=O)O)C(=O)N[C@@H](Cc2c[nH]cn2)C(=O)N[C@@H](Cc2ccccc2)C(=O)N[C@@H](CCCNC(=N)N)C(=O)N[C@@H](CC(=O)O)C(N)=O)NC(=O)[C@H](Cc2ccccc2)NC(=O)[C@H](CCC(=O)O)NC(=O)[C@H]2NC(=O)[C@@H]3C(CCN3C(=O)[C@@H]3CCCN3C1=O)[C@H]2O [3BP-3168, DOTA-Ttds-Nle-[Cys(3MeBn)-Pro-Pro-Thr-Glu-Phe-Cys]-Asp-His-Phe-Arg-Asp-NH2] | > 1000 nM | < 10 nM | > 1000 nM | < 10 nM | 100% | < 10 nM | < 10 nM | < 10 nM |
| CCCC[C@H](NC(=O)CCC(=O)NCCCOCCOCCOCCCNC(=O)CN1CCN(CC(=O)O)CCN(CC(=O)O)CCN(CC(=O)O)CC1)C(=O)N[C@H]1CSCc2cccc(c2)CSC[C@@H](C(N)=O)NC(=O)[C@H](Cc2ccccc2)NC(=O)[C@H](CCC(=O)O)NC(=O)[C@H]([C@@H](C)O)NC(=O)[C@@H]2CCCN2C(=O)[C@@H]2CCCN2C1=O [3BP-3319, DOTA-Ttds-Nle-[Cys(3MeBn)-Pro-Pro-Thr-Glu-Phe-Cys]-NH2] ({X2-Suc}-[Nle]CPPTEFC-NH2; linker 2-8 via mXylylene) | > 1000 nM | 10 to 79.4 nM | 631 nM | 10 to 79.4 nM | 100% | 10 to 79.4 nM | – | – |
| CCCCCC(=O)N[C@H]1CSCc2cccc(c2)CSC[C@@H](C(N)=O)NC(=O)[C@H](Cc2ccccc2)NC(=O)[C@H](CCC(N)=O)NC(=O)[C@H]([C@@H](C)O)NC(=O)[C@@H]2CCCN2C(=O)[C@@H]2CCCN2C1=O [3BP-3349, Hex-[Cys(3MeBn)-Pro-Pro-Thr-Gln-Phe-Cys]-NH2] | > 1000 nM | < 10 nM | > 1000 nM | 10 to 79.4 nM | – | < 10 nM | – | – |
| CCCCCC(=O)N[C@H]1CSCc2cccc(c2)CSC[C@@H](C(=O)N[C@@H](CC(=O)O)C(N)=O)NC(=O)[C@H](Cc2ccccc2)NC(=O)[C@H](CCC(N)=O)NC(=O)[C@H]([C@@H](C)O)NC(=O)[C@@H]2CCCN2C(=O)[C@@H]2CCCN2C1=O [3BP-3476, Hex-[Cys(3MeBn)-Pro-Pro-Thr-Gln-Phe-Cys]-Asp-NH2] (Hexanoyl-CPPTQFCD-NH2; linker 1-7 via mXylylene) | > 1000 nM | < 10 nM | > 1000 nM | < 10 nM | – | < 10 nM | – | – |

More lines, now with the values ahead:

| IC50 [1] | IC50 [2, 7] | IC50 [3] | IC50 [4, 8] | remaining at 4 h, 9.8 µM [5] | Kd [6] | IC50 ([2]; pIC50 (highest activity category), FAP activity assay) | IC50 ([4]; pIC50 (highest activity category), FACS binding) | SMILES |
| --- | --- | --- | --- | --- | --- | --- | --- | --- |
| > 1000 nM | < 10 nM | > 1000 nM | < 10 nM | 94% | < 10 nM | – | – | CCCCCC(=O)N[C@H]1CSCc2cccc(c2)CSC[C@@H](C(=O)N[C@@H](CC(=O)O)C(=O)N[C@@H](Cc2c[nH]cn2)C(=O)N(C)[C@@H](Cc2ccccc2)C(=O)N[C@@H](CCCNC(=N)N)C(=O)NCCCOCCOCCOCCCNC(=O)CCC(=O)N[C@@H](CCCCNC(=O)CN2CCN(CC(=O)O)CCN(CC(=O)O)CCN(CC(=O)O)CC2)C(N)=O)NC(=O)[C@H](Cc2ccccc2)NC(=O)[C@H](CCC(=O)O)NC(=O)[C@H]([C@@H](C)O)NC(=O)[C@@H]2CCCN2C(=O)[C@@H]2CCCN2C1=O [3BP-3275, Hex-[Cys(3MeBn)-Pro-Pro-Thr-Glu-Phe-Cys]-Asp-His-Nmf-Arg-Ttds-Lys(DOTA)-NH2] (Hexanoyl-CPPTEFCDH[NMeF]R-X3; linker 1-7 via mXylylene) |
| > 1000 nM | 10 to 79.4 nM | > 1000 nM | 100 to 794 nM | – | – | – | – | CCCCCC(=O)N[C@H]1CSCc2cccc(c2)CSC[C@@H](C(N)=O)NC(=O)[C@H](Cc2ccccc2)NC(=O)[C@H](CCC(=O)O)NC(=O)[C@H]([C@@H](C)O)NC(=O)[C@@H]2CCCN2C(=O)[C@@H]2CCCN2C1=O [3BP-3287, Hex-[Cys(3MeBn)-Pro-Pro-Thr-Glu-Phe-Cys]-NH2] (Hexanoyl-CPPTEFC-NH2; linker 1-7 via mXylylene) |
| > 1000 nM | < 10 nM | > 1000 nM | 10 to 79.4 nM | 75% | < 10 nM | – | – | CCCC[C@H](NC(=O)CCC(=O)NCCCOCCOCCOCCCNC(=O)CN1CCN(CC(=O)O)CCN(CC(=O)O)CCN(CC(=O)O)CC1)C(=O)N[C@H]1CSCc2cccc(c2)CSC[C@@H](C(=O)NC(CC(=O)O)C(N)=O)NC(=O)[C@H](Cc2ccccc2)NC(=O)[C@H](CCC(=O)O)NC(=O)[C@H]([C@@H](C)O)NC(=O)[C@@H]2CCCN2C(=O)[C@@H]2CCCN2C1=O (stereo partly drawn) [3BP-3320, DOTA-Ttds-Nle-[Cys(3MeBn)-Pro-Pro-Thr-Glu-Phe-Cys]-Asp-NH2] ({X2-Suc}-[Nle]CPPTEFC[ξD]-NH2; linker 2-8 via mXylylene) |
